Test results published in ChEMBL document CHEMBL1201862, “PubChem BioAssay data set” (2004).
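Following 48 hours of exposure in 96-well plates, responses at five concentrations were used to interpolate endpoints linearly. At the GI50, growth is halved.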 The source made the active and inactive calls. No stated cut-off is given here; in the data, active = GI50 up to about 1.1 µM and inactive = higher.

Experiments:
Assay in all cases: inhibition of tumour cell growth, NCI panel, 48 h
[1] = system: SK-MEL-5
[2] = system: DMS-114
[3] = system: SK-MEL-2
[4] = system: K562
[5] = system: UO-31
[6] = system: IGROV-1
[7] = system: OVCAR-3
[8] = system: RPMI-8226
[9] = system: SW-620
[10] = system: HOP-92
[11] = system: KM-20L2
[12] = system: SNB-78
[13] = system: HCT-116
[14] = system: NCI-H226
[15] = system: DLD-1
[16] = system: U-251
[17] = system: A498
[18] = system: M19-MEL
[19] = system: CAKI-1
[20] = system: OVCAR-8
[21] = system: OVCAR-4
[22] = system: SF-295
[23] = system: UACC-62
[24] = system: LOX IMVI
[25] = system: ACHN
[26] = system: LXFL 529
[27] = system: SNB-75
[28] = system: HL-60
[29] = system: HCT-15
[30] = system: SR
[31] = system: TK-10
[32] = system: 786-0
[33] = system: HCC 2998
[34] = system: NCI-H23
[35] = system: EKVX
[36] = system: HT-29
[37] = system: SNB-19
[38] = system: SN12C
[39] = system: SF-268
[40] = system: RXF 631
[41] = system: DMS-273
[42] = system: MOLT-4
[43] = system: Malme-3M
[44] = system: M14
[45] = system: SF-539
[46] = system: OVCAR-5
[47] = system: SK-MEL-28
[48] = system: UACC-257
[49] = system: NCI-H460
[50] = system: CCRF-CEM
[51] = system: RXF 393
[52] = system: A549
[53] = system: XF498
[54] = system: SK-OV-3
[55] = system: COLO 205
[56] = system: NCI/ADR-RES
[57] = system: KM12
[58] = system: PC-3
[59] = system: MDA-N
[60] = system: NCI-H522
[61] = system: T47D
[62] = system: BT-549
[63] = system: HOP-62
[64] = system: MCF7
[65] = system: MDA-MB-435
[66] = system: DU-145
[67] = system: MDA-MB-231
[68] = system: Hs-578T
[69] = system: HOP-18

## CCc1cccc(C(C)CC)c1NC(=O)CC1C(=O)Nc2ccccc2[S+]1[O-] (stereo not given)
[1]
  GI50: 27.2 µM (inactive)
[2]
  GI50: 28.2 µM (inactive)
[3]
  GI50: 40.5 µM (inactive)
[4]
  GI50: 42.3 µM (inactive)
[5]
  GI50: > 100 µM (inactive)
[6]
  GI50: 19.9 µM (inactive)
[7]
  GI50: 50.7 µM (inactive)
[8]
  GI50: 31.3 µM (inactive)
[9]
  GI50: 39.5 µM (inactive)
[10]
  GI50: 16.7 µM (inactive)
[11]
  GI50: 61.2 µM (inactive)
[12]
  GI50: 28.8 µM (inactive)
[13]
  GI50: 31.3 µM (inactive)
[14]
  GI50: > 100 µM (inactive)
[15]
  GI50: 32.8 µM (inactive)
[16]
  GI50: 14.9 µM (inactive)
[17]
  GI50: 37.2 µM (inactive)
[18]
  GI50: 32.8 µM (inactive)
[19]
  GI50: 26.4 µM (inactive)
[20]
  GI50: 95.7 µM (inactive)
[21]
  GI50: 18.3 µM (inactive)
[22]
  GI50: > 100 µM (inactive)
[23]
  GI50: 10 µM (inactive)
[24]
  GI50: 28.2 µM (inactive)
[25]
  GI50: 44.2 µM (inactive)
[26]
  GI50: 31.4 µM (inactive)
[27]
  GI50: 22.4 µM (inactive)
[28]
  GI50: 49.4 µM (inactive)
[29]
  GI50: 31 µM
[30]
  GI50: 30 µM (inactive)
[31]
  GI50: > 100 µM (inactive)
[32]
  GI50: 37.4 µM (inactive)
[33]
  GI50: > 100 µM (inactive)
[34]
  GI50: 58.2 µM (inactive)
[35]
  GI50: > 100 µM (inactive)
[36]
  GI50: 23.1 µM (inactive)
[37]
  GI50: 28.5 µM (inactive)
[38]
  GI50: 91.2 µM (inactive)
[39]
  GI50: 40.9 µM (inactive)
[40]
  GI50: 36.1 µM (inactive)
[41]
  GI50: 34 µM (inactive)
[42]
  GI50: 14.9 µM (inactive)
[43]
  GI50: 37.2 µM (inactive)
[44]
  GI50: 22 µM (inactive)
[45]
  GI50: 23 µM (inactive)
[46]
  GI50: 33.1 µM (inactive)
[47]
  GI50: 26.1 µM (inactive)
[48]
  GI50: > 100 µM (inactive)
[49]
  GI50: 29.4 µM (inactive)
[50]
  GI50: 24.8 µM (inactive)
[51]
  GI50: 13.9 µM (inactive)
[52]
  GI50: 31.8 µM (inactive)

## CCCCCCCCCCCCCCCCCCNC(=O)OCC(CNS(=O)(=O)CCC[n+]1cccc2ccccc21)COC (stereo not given)
[1]
  GI50: 2.06 µM (inactive)
[2]
  GI50: 1.18 µM (inactive)
[3]
  GI50: 1.9 µM (inactive)
[4]
  GI50: 3.55 µM (inactive)
[5]
  GI50: 27.9 µM (inactive)
[6]
  GI50: 1.17 µM (inactive)
[7]
  GI50: 3.99 µM (inactive)
[53]
  GI50: 1.43 µM (inactive)
[8]
  GI50: 1.37 µM (inactive)
[9]
  GI50: 2.16 µM (inactive)
[10]
  GI50: 0.838 µM (active)
[11]
  GI50: 0.776 µM (active)
[12]
  GI50: 1.23 µM (inactive)
[13]
  GI50: 1.35 µM (inactive)
[14]
  GI50: 1.05 µM (active)
[15]
  GI50: 2.85 µM (inactive)
[16]
  GI50: 0.596 µM (active)
[17]
  GI50: 10.9 µM (inactive)
[54]
  GI50: 2.49 µM (inactive)
[18]
  GI50: 1.2 µM (inactive)
[19]
  GI50: 7.82 µM (inactive)
[20]
  GI50: 2.07 µM (inactive)
[21]
  GI50: 1.31 µM (inactive)
[22]
  GI50: 2.6 µM (inactive)
[23]
  GI50: 1.96 µM (inactive)
[55]
  GI50: 435 nM (active)
[56]
  GI50: 18.5 µM (inactive)
[24]
  GI50: 2.01 µM (inactive)
[25]
  GI50: 6.75 µM (inactive)
[26]
  GI50: 1.21 µM (inactive)
[57]
  GI50: 1.84 µM (inactive)
[27]
  GI50: 2.47 µM (inactive)
[28]
  GI50: 1.23 µM (inactive)
[29]
  GI50: 23.7 µM
[30]
  GI50: 2.04 µM (inactive)
[31]
  GI50: 3.4 µM (inactive)
[32]
  GI50: 3.45 µM (inactive)
[58]
  GI50: 1.76 µM (inactive)
[33]
  GI50: 1.34 µM (inactive)
[34]
  GI50: 1.16 µM (inactive)
[35]
  GI50: 17.7 µM (inactive)
[59]
  GI50: 1.81 µM (inactive)
[36]
  GI50: 0.565 µM (active)
[60]
  GI50: 1.02 µM (active)
[37]
  GI50: 1.4 µM (inactive)
[38]
  GI50: 1.56 µM (inactive)
[39]
  GI50: 2.34 µM (inactive)
[41]
  GI50: 0.251 µM (active)
[61]
  GI50: 3.88 µM (inactive)
[62]
  GI50: 2.18 µM (inactive)
[42]
  GI50: 1.11 µM (active)
[63]
  GI50: 3.76 µM (inactive)
[43]
  GI50: 3.74 µM (inactive)
[44]
  GI50: 3.7 µM (inactive)
[64]
  GI50: 1.55 µM (inactive)
[45]
  GI50: 2.01 µM (inactive)
[46]
  GI50: 2.13 µM (inactive)
[47]
  GI50: 4.74 µM (inactive)
[48]
  GI50: 2.8 µM (inactive)
[65]
  GI50: 2.1 µM (inactive)
[66]
  GI50: 12.4 µM (inactive)
[49]
  GI50: 1.34 µM (inactive)
[67]
  GI50: 1.82 µM (inactive)
[50]
  GI50: 1.06 µM (active)
[51]
  GI50: 4.99 µM (inactive)
[68]
  GI50: 2 µM (inactive)
[69]
  GI50: 3.32 µM (inactive)
[52]
  GI50: 1.47 µM (inactive)
